# Measurements taken from PubChem BioAssay AID372 (MTDP, 2006).
# Calls of active or inactive are those of the source. Cut-off read from the data, not from the text of the source: active = inhibition above about 50%; inactive = the rest.
# Biological target: Gag-Pol polyprotein (Human immunodeficiency virus type 1 group M subtype B (isolate HXB2)) (UniProt P04585)
# Experiment: RNase H inhibition, HIV 1 Gag Pol polyprotein, FRET biochemical assay, screening (AID 372)
# Conditions: HIV-1 RT RNase H, FRET RNA/DNA substrate fluorescence
row,SMILES,IC50
1,CC1=C(C)CC(C(=O)Nc2ccc(N3C(=O)c4ccccc4C3=O)cc2)C(C(=O)O)C1 (stereo not given),100 µM
2,COC(=O)c1c(N)sc(C(=O)Nc2ccc(OC)cc2)c1C,6.6 µM
3,O=C1NC(=S)N(c2cccc(Cl)c2)C(=O)/C1=C\C=C\c1ccco1,7.7 µM
4,Cc1ccc(S(=O)(=O)/N=C2\C=CC(=O)C=C2Cl)cc1,1.5 µM
5,COc1ccc(N2C(=O)/C(=C/c3ccc(I)o3)C(=O)NC2=S)cc1,3.7 µM
6,Nc1ccc(S(=O)(=O)O)c2cccc(O)c12,10 µM
7,Cc1ccc(C)n1-c1ccc(SCC(=O)O)cc1,8 µM
8,O=C1NC(=S)S/C1=C/c1cccc(OCc2ccc(Cl)c(Cl)c2)c1,4 µM
9,O=S(=O)(Nc1cccc(C(F)(F)F)c1)c1ccc2ccccc2c1,25 µM
10,N#C/C(=C\Nc1ccc(S(=O)(=O)Nc2nccs2)cc1)c1nc(-c2ccc(Cl)cc2)cs1,4.1 µM
11,Cc1ccc(C(=O)Nc2sc(C)c(C)c2C(N)=O)cc1,0.6 µM
12,N#Cc1c(N)nc(SCC(=O)c2ccc(O)c(O)c2)c(C#N)c1-c1ccc(O)cc1,0.9 µM
13,O=C1C=C/C(=N\S(=O)(=O)c2cc(Cl)ccc2Cl)C=C1Cl,2 µM
14,Cc1cc(I)c2c(c1)C1C=CCC1C(C(=O)O)N2 (stereo not given),100 µM
15,Cc1sc(NC(=O)c2ccco2)c(C(N)=O)c1C,3.2 µM
16,O=C1NC(=S)N(c2ccc(Cl)cc2)C(=O)/C1=C\C=C\c1ccccc1[N+](=O)[O-],3.3 µM
17,CCOc1ccc(C2=CC(=O)C=CC2=O)cc1,0.9 µM
18,CC1=NN(c2ccc(S(N)(=O)=O)cc2)C(=O)/C1=C/c1ccc(-c2ccc(Cl)cc2Cl)o1,3.8 µM
19,O=C1CC(=O)c2ccc3c4c(ccc1c24)C(=O)CC3=O,3.8 µM
20,O=C1NC(=S)N(c2ccccc2F)C(=O)C1=Cc1ccco1,2.2 µM
21,O=C(N/N=C/c1ccc(/C=N/NC(=O)c2ccc(O)c(O)c2)cc1)c1ccc(O)c(O)c1,2.1 µM
22,COc1ccccc1N=C(NOCc1ccc(Cl)cc1Cl)c1nonc1N,1.7 µM

row,SMILES,IC50
1,O=C1C(Cl)=C/C(=N\S(=O)(=O)c2ccccc2)C(Cl)=C1Cl,3.8 µM
2,Cc1ccc(NC(=O)c2c(NC(=O)c3ccccc3F)sc3c2CCCCC3)cc1,inactive
3,Cc1onc(-c2ccccc2)c1C(=O)Nc1sc(C)c(C)c1C(N)=O,inactive
4,COc1ccc2c(c1)N(C(=O)CN1C(=O)c3ccccc3C1=O)C(C)(C)c1ssc(=S)c1-2,3 µM
5,Cc1cc(-c2ccco2)c(C#N)c(SCC(=O)c2ccc(O)c(O)c2)n1,1.4 µM
6,O=C1NC(=O)/C(=C/c2ccc(-c3ccc(O)c(C(=O)O)c3)o2)S1,4.2 µM
7,O=C1C(Cl)=C/C(=N\S(=O)(=O)c2ccc(Cl)cc2)C(Cl)=C1Cl,4 µM
8,Cc1ccc(-c2c(C#N)c(SCC(=O)c3ccc(O)c(O)c3)nc3c2CCCC3)o1,6.5 µM
9,CCOc1ccc(N2C(=O)/C(=C/c3ccc(Br)o3)C(=O)NC2=S)cc1,2.1 µM
10,O=C1Nc2ccc(I)cc2C1(O)N1CCOCC1 (stereo not given),6.3 µM
11,O=C(Nc1ccc(N2CCN(C(=O)c3ccccc3)CC2)cc1)c1ccc(-c2ccccc2)cc1,4.2 µM
12,Cc1cc(C(=O)O)ccc1-n1c(C)ccc1C,100 µM
13,Cc1sc(NC(=O)c2ccc(Br)o2)c(C(N)=O)c1C,5.5 µM
14,COc1ccc2oc(=O)c(-c3csc(Nc4ccc(Br)cc4)n3)cc2c1,10.1 µM
15,O=C(O)c1cc(-c2ccc(/C=C3/Sc4ccccc4C3=O)o2)ccc1O,3.3 µM
16,O=C1/C(=C/c2ccc(O)c(O)c2)SC(=S)N1c1ccc(O)cc1,3.5 µM
17,O=C1NC(=S)N(c2ccccc2F)C(=O)/C1=C/c1ccc(I)o1,6.7 µM
18,C=CCn1c(N)c(-c2nc3ccccc3[nH]2)sc1=S,2.8 µM
19,O=C1NC(=S)N(c2ccc(Cl)cc2)C(=O)/C1=C/c1ccc(Br)o1,1.7 µM
20,Cc1ccc(C)n1-c1ccc(O)c(C(=O)O)c1,9 µM
21,Oc1c(Br)cc(/C=N/Nc2nnc3c(n2)[nH]c2ccccc23)c(Br)c1O,4 µM
22,COc1ccc(-c2nc3sc(-c4ccc(OC)cc4)nc3s2)cc1,1.9 µM

row,SMILES,IC50
1,Cc1ccc(S(=O)(=O)N=C2C=CC(=O)C=C2)c(C)c1,1.9 µM
2,O=c1[nH]c(=S)n(-c2ccccc2F)c(O)c1C=C1C=CC=N1,2.3 µM
3,Cc1ccc(S(=O)(=O)/N=C2\C=C(Sc3ncn[nH]3)C(=O)c3ccccc32)cc1,1.3 µM
4,Cc1ccc(C=C2C(=O)NC(=S)N(c3ccccc3Cl)C2=O)o1,8 µM
5,COc1cccc2cc(C(N)=O)c(=O)oc12,4 µM
6,Cc1ccc(C(=O)NC(=S)Nc2ccc(-c3nc4ccccc4s3)cc2)cc1[N+](=O)[O-],20 µM
7,O=C1NC(=S)N(c2ccccc2F)C(=O)/C1=C/c1ccc(OCc2cccc(C(=O)O)c2)cc1,9 µM
8,Cc1ccc(S(=O)(=O)N=C2C=C(Cl)C(=O)C(Br)=C2)cc1,3.1 µM
9,Cc1ccc(N2C(=O)/C(=C/c3ccc(O)c(O)c3)SC2=S)cc1C,12 µM
10,Cc1sc(NC(=O)C2CC3CCC2C3)c(C(N)=O)c1C (stereo not given),13 µM
11,O=C1NN(c2ccc(I)cc2)C(=O)/C1=C\c1ccc(O)c(O)c1,10.8 µM
12,O=c1oc2ccccc2c(O)c1/C=C1\C=Nc2ccccc21,3.2 µM
13,Cc1ccccc1-n1c(O)c(C=C2C=CC=N2)c(=O)[nH]c1=S,10.2 µM
14,COc1ccc(NC(=O)c2c(N)sc(-c3ccccc3)c2C)cc1,7 µM
15,COc1cc(/C=N\c2sc3c(c2C(=O)NCc2ccccc2)CCCC3)cc(Cl)c1O,2.1 µM
16,NC(=O)c1c(NC(=O)COc2ccccc2)sc2c1CCCCC2,inactive
17,NC(=O)c1c(NC(=O)CCc2ccccc2)sc2c1CCCCCC2,1.5 µM
18,Cc1cc(Br)ccc1N1C(=O)/C(=C/c2ccco2)C(=O)NC1=S,7 µM
19,O=C1/C(=C\c2ccc(O)c(O)c2)SC(=S)N1c1cccc(Cl)c1,4.5 µM
20,Cc1cc(Cl)ccc1OCC(=O)Nc1sc(C)c(C)c1C(N)=O,10.7 µM
21,CC(C)OC(=O)c1cc(O)c(O)c(O)c1,1.3 µM
22,O=C1C=CC(=NS(=O)(=O)c2ccc(Cl)c([N+](=O)[O-])c2)C=C1,1.5 µM

row,SMILES,IC50
1,O=C1NC(=S)N(c2ccc(Cl)cc2)C(=O)/C1=C/c1ccco1,8.9 µM
2,CCOc1ccc(NC(=O)c2c(NC(=O)c3ccccc3)sc3c2CCCCC3)cc1,inactive
3,O=C(Nc1sc2c(c1C(=O)Nc1cccc3ccccc13)CCCCC2)c1ccccc1F,inactive
4,Cc1nn(CC(=O)Nc2sc(C)c(C)c2C(N)=O)c(C)c1[N+](=O)[O-],4.3 µM
5,CCOc1cccc(N2C(=O)/C(=C/c3cn(CC(=O)OC)c4ccccc34)C(=O)NC2=S)c1,5.5 µM
6,Cc1ccc(-c2cc(C(=O)Nc3sc(C(=O)OC(C)C)c(C)c3C(N)=O)c3ccccc3n2)s1,inactive
7,CCOc1ccc(C(=O)Nc2ccc3c(c2)C(=O)c2ccccc2C3=O)cc1,8 µM
8,CCN1C(=O)/C(=C/c2ccoc2)C(=O)NC1=S,40 µM
9,Cc1sc(NC(=O)c2cccc([N+](=O)[O-])c2)c(C(N)=O)c1C,inactive
10,Cc1sc(NC(=O)Cc2ccccc2)c(C(N)=O)c1C,8 µM
11,COc1ccc(/C=C\C(=O)c2c(-c3ccccc3)c3cc(C)ccc3[nH]c2=O)c(OC)c1,22 µM
12,Cc1sc(NC(=O)C2CCCO2)c(C(N)=O)c1C (stereo not given),3 µM
13,O=C(Oc1ccccc1)Oc1c(Cl)cc2oc(=O)sc2c1Cl,19 µM
14,O=C1c2ccccc2C(=O)N1c1ccc(-c2nc3ccc(N4C(=O)c5ccccc5C4=O)cc3[nH]2)cc1,4 µM
15,Cc1ccc(-n2c(/C=C/c3ccc(O)c(O)c3)nc3ccccc3c2=O)cc1,3.8 µM
16,C=CCN1C(=O)/C(=C\c2ccc([N+](=O)[O-])o2)C(=O)NC1=S,75 µM
17,COc1ccc(C(=O)NC(=S)Nc2ccc3nn(-c4ccc(C)c(Cl)c4)nc3c2)cc1[N+](=O)[O-],17 µM
18,O=C(NC(=S)Nc1cc(-c2nc3ccccc3s2)ccc1Cl)c1ccc(F)cc1,9.1 µM
19,Cc1ccc(NC(=O)c2c(NC(=O)C(F)(F)F)sc(-c3ccccc3)c2C)c(C)c1,2.8 µM
20,CCOc1ccc(NC(=O)c2c(NC(=O)c3ccco3)sc3c2CCCCC3)cc1,10 µM
21,Cc1cc(C)c2c(=O)[nH]c(SCC(=O)c3ccc(O)c(O)c3)nc2n1,3.4 µM
22,O=C1/C(=C/c2ccco2)C(=O)N(c2ccc(Br)cc2)C(=S)N1c1ccccc1,10.2 µM

row,SMILES,IC50
1,Cc1cc(-c2ccc(C=C3C(=O)NC(=S)NC3=O)o2)c([N+](=O)[O-])cc1C,3 µM
2,Oc1ccc(/C=N/Nc2nncc(-c3ccccc3)n2)c(O)c1O,6.8 µM
3,Cc1cccc(NC(=O)c2c(NC(=O)c3ccc([N+](=O)[O-])cc3)sc3c2CCCC3)c1,1.5 µM
4,Cc1ccc(C)n1-c1ccc(Br)cc1C(=O)O,32 µM
5,Cc1sc2nc(-c3ccc([N+](=O)[O-])cc3)[nH]c(=O)c2c1C,0.55 µM
6,Cc1c(Cl)ccc2c1NC(C(=O)O)C1CC=CC21 (stereo not given),22 µM
7,O=C(O)C1Nc2c(Cl)cc(Cl)cc2C2C=CCC12 (stereo not given),72 µM
8,O=C1C=CC(=O)C(c2cc(Cl)ccc2Cl)=C1,2.1 µM
9,COc1ccccc1NC(=O)c1c(NC(=O)Cc2ccccc2)sc2c1CCCCC2,inactive
10,O=C1C(Cl)=C(NC(=O)c2ccccc2)C(=O)C(Cl)=C1NC(=O)c1ccccc1,4 µM
11,COc1ccc(N2C(=O)/C(=C\c3cn(CC(=O)Nc4ccccc4)c4ccccc34)C(=O)NC2=S)cc1,5 µM
12,CCOc1ccc(N2C(=O)/C(=C/c3ccc(I)o3)C(=O)NC2=S)cc1,4.8 µM
13,O=C1/C(=C/c2ccc(O)c(O)c2)SC(=S)N1C1CCCCC1,5.7 µM
14,O=C(Cc1ccccc1Cl)c1ccc(O)c(O)c1O,2 µM
15,Cc1ccc(-c2n[nH]c(=S)n2/N=C/c2ccc(O)c(O)c2O)cc1,1.8 µM
16,CCC(=O)Nc1sc2c(c1C(=O)Nc1ccc(OC)cc1)CCCCC2,inactive
17,O=C1C(Cl)=CC(=NS(=O)(=O)c2ccccc2)C=C1Cl,3.1 µM
18,O=C(N/N=C/c1ccccc1Cl)c1cc(O)c(O)c(O)c1,0.6 µM
19,COc1cc(C=O)ccc1OCCCOc1cccc(Oc2ccccc2)c1,100 µM
20,COc1ccc(-c2c(C#N)c(N)nc(SCC(=O)c3ccc(O)c(O)c3)c2C#N)cc1,1.8 µM
21,Cc1cccc(NCC(=O)N/N=C\c2c(Br)cc(Br)c(O)c2Br)c1,62 µM
22,NC(=O)c1c(N)sc2c1CCCCC2,2 µM
